# From patent publication US20250122155A1, “NOVEL INDOLE DERIVATIVE, PHARMACEUTICAL COMPOSITION COMPRISING SAME, AND USE THEREOF” (MITOIMMUNE THERAPEUTICS INC., priority 2021, published 2025)
# Read-outs that look alike come from different tables or passages of the source.
# Legend:
# [1] = Plasma and brain drug concentration after oral administration (HPLC-MS/MS); type: in vivo; details: for drug concentration in brain / drug concentration in plasma / concentration at 2 h / concentration at 24 h / concentration at 0.5 h / concentration at 1 h / concentration at 4 h / concentration at 8 h / AUC(0-t): 10 mg/kg; for AUC(0-inf): read-out: area under the plasma concentration v. time curve (AUCinf); for concentration at 2 h / concentration at 24 h / concentration at 0.5 h / concentration at 1 h / concentration at 4 h / concentration at 8 h / AUC(0-t): ICR, mouse, po
# Protocol: […] parameters can be represented as maximum concentration in plasma (Cmax), time taken until maximum concentration in plasma (Tmax), area under the plasma concentration-time curve (AUClast and AUCinf), and half-life (t1/2), and the like.
# The compound of Example 2 was orally administered to ICR mice at a dose of 10 mg/kg, and drug concentration in mouse plasma was measured using HPLC-MS/MS spectroscopy at 0.5, 1, 2, 4, 8 and 24 hours. The mouse brains were removed at 2 or 24 hours, and drug concentration in the brain was measured using HPLC-MS/MS spectroscopy. The area under the plasma concentration v. time curve (AUCinf) was measured to be […], and at 2 hours after administration drug concentration in plasma was 398 ng/mL and brain drug concentration was measured at 683 ng/mL. […] Further, at 24 hours after administration, for Example 2, drug concentration in plasma was measured to be 5.6 ng/mL and drug concentration in the brain was measured at 11.4 ng/mL. With the brain-plasma drug concentration ratio at 2.04, drug exposure in the brain was still high.
# The Comparative Example compound was orally administered to ICR mice at a dose of 10 mg/kg, and drug concentration in mouse plasma was measured using HPLC-MS/MS spectroscopy at 0.5, 1, 2, 4, 8 and 24 hours. The mouse brains were removed at 2 or 24 hours, and drug concentration in the brain was measured using HPLC-MS/MS spectroscopy.
# H9C2 cells [2] = assay: Protective effect on heart cells against t-BHP (LDH release); type: cell-based; details: H9C2, t-BHP 400 μM, 2 hours, read-out: EC50 (μM), Cell Protection Effect against t-BHP in Heart Cells
# Protocol: In order to identify the protective effect with regard to heart cells, H9C2 cells were divided into 96-well plates by 1.5×10^4, and cultured for 24 hours. The respective wells were treated with compounds of the examples 3× serial diluted to final concentrations of 30, 10, 3, 1, 0.3, 0.1, 0.03 and 0.01 μM, then incubated for 15 to 20 minutes. After treating with t-BHP with a final concentration of 400 μM, incubation was performed for 2 hours. To confirm the protective effect of each compound, a Cytotoxicity LDH assay kit [Dojindo; CK12] was used to measure the degree of extracellular secretion of LDH. After 2-hour treatment of the cells with t-BHP was completed, 100 μL each of the supernatant in which the cells were placed was collected and moved to a new 96-well plate. 100 μL/well of the assay buffer included in the kit (same amount as the sample) was added, followed by wrapping with foil and reacting for 30 minutes at room temperature. Observing the change of color in the sample, 50 μL/well of stop solution was added, then an iD3 spectrometer was used to measure absorbance at 490 nm and calculate the EC50 values. The EC50 of the compounds of the examples is preferably no more than 1.0 μM, and more preferably no more than 0.3 μM.
# H9C2 cells [3] = assay: Maintenance of intracellular calcium level in heart cells treated with t-BHP (FLIPR Calcium 6); type: cell-based, rat; details: H9C2, t-BHP 150 μM
# Protocol: To examine the maintenance effect on calcium level in heart cells, H9C2 cells were divided into a 96-well plate at 1.5×10^4 cells/well and cultured for 24 hours. To measure intracellular calcium level, a FLIPR Calcium 6 assay kit (Molecular devices; #R8190) was used. Following the experimental method provided by the manufacturer, cells were treated with probenecid and calcium-sensitive dye for 1.75 hours, and then the cells were treated with the compound of Example 2 for 0.25 hours (the final concentration of the compound was 0.02 or 0.01 μM). And the cells were treated with t-BHP to a final concentration of 150 μM, then intracellular calcium level was measured every 30 seconds in real time.
# FIG. 1 is a graph regarding the regulatory effect of the compound of Example 2 on calcium level under t-BHP treatment. The ΔF/F(Max−Min) value on the vertical axis is the difference between the maximum and minimum fluorescence intensity values of the calcium-sensitive dye after treatment with t-BHP (150 μM), and this value increases as intracellular calcium level increases.
# [4] = ICR mouse, oral 10 mg/kg, 24 hr
# [5] = ICR mouse, oral 10 mg/kg, plasma
# [6] = brain, 2 hr, read-out: drug concentration in brain
# [7] = brain, 24 hr, read-out: drug concentration in brain
# [8] = plasma, 2 hr, read-out: drug concentration in plasma
# [9] = plasma, 24 hr, read-out: drug concentration in plasma
# [10] = plasma, plasma, read-out: area under the plasma concentration v. time curve (AUClast)
# [11] = plasma, read-out: AUClast, plasma
# [12] = brain/plasma, ICR mouse, oral 10 mg/kg, 2 hr, read-out: brain-plasma drug concentration ratio (B/P ratio)
"drug concentration in brain ([1]; ICR mouse, oral 10 mg/kg, 2 hr) [ng/mL]","drug concentration in plasma ([1]; ICR mouse, oral 10 mg/kg, 2 hr) [ng/mL]","AUC(0-inf) [1, 5] [ng·h/mL]","concentration at 2 h [1, 6] [ng/mL]","concentration at 24 h [1, 7] [ng/mL]",concentration at 0.5 h ([1]; plasma) [ng/mL],concentration at 1 h ([1]; plasma) [ng/mL],"concentration at 2 h [1, 8] [ng/mL]",concentration at 4 h ([1]; plasma) [ng/mL],concentration at 8 h ([1]; plasma) [ng/mL],"concentration at 24 h [1, 9] [ng/mL]","AUC(0-t) [1, 10] [ng·h/mL]","AUC(0-t) [1, 11] [ng·h/mL]","Kp at 2 h [1, 12]",SMILES,further results
95,1122,5460,95,0,1640,2110,1120,389,50.8,0,5360,5360,0.08,"OCc1cc(NC2CCCC2)c2[nH]c(-c3ccccc3)cc2c1 [Comparative Example, reference compound]","drug concentration in brain [1, 4]: no drug concentration was measured; drug concentration in plasma [1, 4]: no drug concentration was measured"
682.8,398.2,5420,683,11.4,334,337,398,672,232,5.6,5400,5400,1.71,"COCCOCc1cc(NC2CCCC2)c2[nH]c(-c3ccccc3)cc2c1 [Example 2, N-cyclopentyl-5-(2-methoxyethoxymethyl)-2-phenyl-1H-indol-7-amine]","AUClast, brain ([1]; ICR mouse, oral 10 mg/kg): 8319.0 ng·h/g; Kp at 24 h ([1]; brain/plasma, ICR mouse, oral 10 mg/kg, 24 hr, read-out: brain-plasma drug concentration ratio (B/P ratio)): 2.04; Kp ([1]; brain/plasma, ICR mouse, oral 10 mg/kg, read-out: B/P ratio of AUClast): 1.74; EC50 (H9C2 cells [2]): ≤ 0.3 µM; intracellular calcium level, ΔF/F(Max−Min) (H9C2 cells [3]; compound 0.01 μM): significantly decreased; intracellular calcium level, ΔF/F(Max−Min) (H9C2 cells [3]; compound 0.02 μM): within normal range"
